System: binding of 125I-HCGβ to monoclonal antibody FBT11-II
Test: Competitive inhibition assay with synthetic peptides (125I-HCGβ tracer)
Details: increasing concentrations of unlabeled peptide; 4° C. for 18 h; FIG. 2
Description: Competitive inhibition assays were performed as previously described (20). Briefly, ^125I labelled HCGβ was employed as the tracer. All experiments were performed in 50 mM phosphate buffer, pH 7.5, containing 154 mM NaCl, 0.02% sodium azide, and 1% bovine serum albumin. First, we determined the dilution of FBT11-II which produced a 50% binding to ^125I-HCGβ (30,000 cpm) in the absence of peptide. Then, competitive inhibition assays were performed with the defined dilution of antibody. Displacement curves were generated in the presence of increasing concentrations of unlabeled peptides as follows: 100 μl of ^125I—HCGIβ, 100 μl of monoclonal antibody, and 50 μl of the competitive inhibitor were incubated simultaneously at 4° C. for 18 h. The antigen-antibody complex was then precipitated by adding normal human serum diluted (1:3) in phosphate buffer (100 μl) and 1 ml of 20% polyethylene glycol. After centrifugation, the pellet was counted.
Since it was previously shown that FBT11 recognizes residues 1 through 7 and 82 through 92 of the free HCGβ subunit (20), in this study we examined whether the differences in the N-terminal sequence of HCGβ altered the recognition of FBT11-II. We performed inhibition assays with peptides spanning residues 1 through 7 to determine mAb FBT11-II specificity. We used three peptides analogous to sequences 1-7 of HCGβ encoded by type I gene (SREMLRP, SEQ ID NO: 4), 1-7 of HCGβ encoded by type II genes (SKEPLRP, SEQ ID NO: 3) and 1-7 of LHβ (SREPLRP, SEQ ID NO: 5) (FIG. 2). First, we determined the dilution of FBT11-II which produced a 50% binding to ^125I-HCGβ in the absence of peptide. Then, competitive inhibition assays were performed with the defined dilution of antibody. Displacement curves were generated in the presence of increasing concentrations of unlabeled peptides.

Substance	Inhibition of 125I-HCGβ binding to antibody FBT11-II (displacement of bound tracer)
SREPLRP (Synthetic 7-mer peptides corresponding to residues 1 through 7 of the LHbeta gene)	to a lesser degree than SKEPLRP
SREMLRP (Synthetic 7-mer peptides corresponding to residues 1 through 7 of HCGbeta encoded by type I gene beta7)	unable to inhibit
SKEPLRP (Synthetic 7-mer peptides corresponding to residues 1 through 7 of HCGbeta encoded by type II genes beta3, beta5 and beta8)	highest potency
